This experiment addresses T1, recombinant human E-selectin (Homo sapiens, UniProt P16581).
T1 sequence (P16581 22-556 limits assumed): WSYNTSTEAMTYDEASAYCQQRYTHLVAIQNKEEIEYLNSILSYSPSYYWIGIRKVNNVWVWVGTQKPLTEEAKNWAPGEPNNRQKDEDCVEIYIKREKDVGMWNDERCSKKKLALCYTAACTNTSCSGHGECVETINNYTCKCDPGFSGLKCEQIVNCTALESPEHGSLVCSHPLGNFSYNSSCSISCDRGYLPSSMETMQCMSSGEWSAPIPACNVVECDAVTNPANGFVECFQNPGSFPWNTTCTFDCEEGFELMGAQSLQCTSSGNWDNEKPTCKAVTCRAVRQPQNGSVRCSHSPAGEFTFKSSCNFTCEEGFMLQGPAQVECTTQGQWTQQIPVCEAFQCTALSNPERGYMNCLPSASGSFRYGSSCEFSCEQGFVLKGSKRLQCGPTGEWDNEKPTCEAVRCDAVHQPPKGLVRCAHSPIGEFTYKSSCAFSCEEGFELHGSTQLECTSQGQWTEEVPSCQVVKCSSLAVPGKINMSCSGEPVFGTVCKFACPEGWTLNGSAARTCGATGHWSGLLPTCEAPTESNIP
In words: Surface plasmon resonance. The format is binding. Conditions: SPR, peptide M versus peptide K.

Structures are written as SMILES. Where a SMILES comes first, the peptide text is derived from it.

The source of these data is article PMC3366278 (Biomaterials, 2012).

As for `CC[C@H](C)[C@H](NC(=O)[C@H](CC(=O)O)NC(=O)[C@H](CO)NC(=O)CNC(=O)[C@@H](N)CS)C(=O)N[C@H](C(=O)N[C@@H](Cc1c[nH]c2ccccc12)C(=O)N[C@@H](CC(=O)O)C(=O)N[C@@H](CCC(N)=O)C(=O)N[C@@H](CC(C)C)C(=O)N[C@@H](Cc1c[nH]c2ccccc12)C(=O)N[C@@H](CC(=O)O)C(=O)N[C@@H](CC(C)C)C(=O)N[C@@H](CCSC)C(=O)O)[C@@H](C)O` [Peptide M, CGSDITWDQLWDLM] (H-CGSDITWDQLWDLM-OH), the “koff relative to peptide K (times faster)” value is 10 times.
